The values below come from patent US20060083714A1, “Combination of a pde iv inhibitor and a tnf-alpha antagonist” (priority 2003, published 2006).

Each structure is given as a SMILES string.

As usually defined, the IC50 is the concentration that inhibits the measured activity by half.

Test [1] has as its system PDE IV. Briefly: Inhibition of PDE isoenzymes: PDE IV (PDE4, cytosol of human neutrophils, cAMP substrate). The format is biochemical.
Method: PDE inhibition is then determined by the presence or absence of substrate degradation products. […] The relative ability of an inhibitory compound to slow or prevent the degradation of tritiated cyclic nucleotides is one test that is indicative of how well the compound in question selects one or more of each isoform to inhibit.
In practice, the in vitro selectivity of a PDE IV inhibitor may vary depending upon the condition under which the test is performed and on the inhibitors being tested. However, for the purposes of this specification, the selectivity of a PDE IV inhibitor can be measured as a ratio of the in vitro IC50 value for inhibition of any other isoform of the phosphodiesterase enzyme (Z) other than PDE IV, divided by the IC50 value for inhibition of PDE IV (PDE Z IC50/PDE IV IC50), where Z identifies any PDE other than PDE IV. As used herein, the term “IC50” refers to the concentration of a compound that is required to produce 50% inhibition of phosphodiesterase activity. […]
After preincubation for 5 min at 37° C., the reaction isstarted by the addition of substrate (cAMP or cGMP) and the assays are incubated for further 15 min at 37° C. […] The columns are elutedwith 2 ml of 30 mM ammonium formate (pH 6.0) and the eluate is counted for radioactivity. Results are corrected for blank values (measured in the presence of denatured protein) that are below 5% of total radioactivity. […]
A further test deals with PDE I. The note with it: reported in Hatzelmann et al., JPET 297(1):267-279 (2001); read-out: IC50 for roflumilast activity on PDE I; cited from earlier work.
The test system of test [2] is T1, PDE IV.
T1 construct: other: reported in Hatzelmann et al., JPET 297(1):267-279 (2001)
Conditions: reported in Hatzelmann et al., JPET 297(1):267-279 (2001); read-out: IC50 for roflumilast activity on PDE IV; cited from earlier work.

Take `O=C(Nc1c(Cl)cncc1Cl)c1ccc(OC(F)F)c(OCC2CC2)c1` [roflumilast, 3-(cyclopropylmethoxy)-N-(3,5-dichloropyridin-4-yl)-4-(difluoromethoxy) benzamide]: the “selectivity for PDE IV as compared with PDE V (PDE V IC50/PDE IV IC50)” value in the test on PDE IV [1] (8/0.0008) is “at least 10,000”. In addition, the “selectivity for PDE IV as compared with PDE I (PDE I IC50/PDE IV IC50)” value in the test with PDE IV [1] (>10/0.0008) was “at least 12,500”. The values for the half-maximal inhibitory concentration (IC50) in the test on PDE I and in the test with PDE IV [2] were more than 10000 nM and 0.8 nM, respectively.
